Legend:
[1] = test system: Rabbit Psoas myofibrils (skeletal myosin ATPase); test: Myofibril ATPase assay, rabbit psoas (skeletal) myofibrils; assay type: biochemical; conditions: rabbit psoas myofibrils; Y75 value
Outline: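 Values derive from concentration–response fits of NADH consumption rates at 340 nm, normalized to vehicle-only wells, as Y75 or Y125. Myofibril ATP turnover was linked to NADH via PK/LDH in Ca/EGTA-buffered PIPES, pH 7.0, and read over 75 min.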

[2] = test system: Porcine atria myofibrils (atrial myosin ATPase); test: Myofibril ATPase assay, porcine atria myofibrils; assay type: biochemical; conditions: porcine atria myofibrils; Y75 value (75% activity relative to no compound)
Outline: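 Atrial myofibril ATPase measured by NADH-coupled absorbance at 340 nm; vehicle-normalized slopes fitted to give Y75 or Y125 values.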

[3] = biological target: T1, Porcine ventricle myofibrils (ventricular myosin ATPase) (Sus scrofa, UniProt P79293); test: Myofibril ATPase assay, porcine ventricle myofibrils; assay type: biochemical, porcine (Yucatan minipigs); conditions: porcine ventricle myofibrils; Y75 value
T1 construct: Myofibrils from porcine cardiac muscle was isolated from the left ventricle of Yucatan minipigs; tissue Exemplar Genetics; host or cells: left ventricle of Yucatan minipigs, myofibrils prepared in house
T1 sequence (P79293 whole entry): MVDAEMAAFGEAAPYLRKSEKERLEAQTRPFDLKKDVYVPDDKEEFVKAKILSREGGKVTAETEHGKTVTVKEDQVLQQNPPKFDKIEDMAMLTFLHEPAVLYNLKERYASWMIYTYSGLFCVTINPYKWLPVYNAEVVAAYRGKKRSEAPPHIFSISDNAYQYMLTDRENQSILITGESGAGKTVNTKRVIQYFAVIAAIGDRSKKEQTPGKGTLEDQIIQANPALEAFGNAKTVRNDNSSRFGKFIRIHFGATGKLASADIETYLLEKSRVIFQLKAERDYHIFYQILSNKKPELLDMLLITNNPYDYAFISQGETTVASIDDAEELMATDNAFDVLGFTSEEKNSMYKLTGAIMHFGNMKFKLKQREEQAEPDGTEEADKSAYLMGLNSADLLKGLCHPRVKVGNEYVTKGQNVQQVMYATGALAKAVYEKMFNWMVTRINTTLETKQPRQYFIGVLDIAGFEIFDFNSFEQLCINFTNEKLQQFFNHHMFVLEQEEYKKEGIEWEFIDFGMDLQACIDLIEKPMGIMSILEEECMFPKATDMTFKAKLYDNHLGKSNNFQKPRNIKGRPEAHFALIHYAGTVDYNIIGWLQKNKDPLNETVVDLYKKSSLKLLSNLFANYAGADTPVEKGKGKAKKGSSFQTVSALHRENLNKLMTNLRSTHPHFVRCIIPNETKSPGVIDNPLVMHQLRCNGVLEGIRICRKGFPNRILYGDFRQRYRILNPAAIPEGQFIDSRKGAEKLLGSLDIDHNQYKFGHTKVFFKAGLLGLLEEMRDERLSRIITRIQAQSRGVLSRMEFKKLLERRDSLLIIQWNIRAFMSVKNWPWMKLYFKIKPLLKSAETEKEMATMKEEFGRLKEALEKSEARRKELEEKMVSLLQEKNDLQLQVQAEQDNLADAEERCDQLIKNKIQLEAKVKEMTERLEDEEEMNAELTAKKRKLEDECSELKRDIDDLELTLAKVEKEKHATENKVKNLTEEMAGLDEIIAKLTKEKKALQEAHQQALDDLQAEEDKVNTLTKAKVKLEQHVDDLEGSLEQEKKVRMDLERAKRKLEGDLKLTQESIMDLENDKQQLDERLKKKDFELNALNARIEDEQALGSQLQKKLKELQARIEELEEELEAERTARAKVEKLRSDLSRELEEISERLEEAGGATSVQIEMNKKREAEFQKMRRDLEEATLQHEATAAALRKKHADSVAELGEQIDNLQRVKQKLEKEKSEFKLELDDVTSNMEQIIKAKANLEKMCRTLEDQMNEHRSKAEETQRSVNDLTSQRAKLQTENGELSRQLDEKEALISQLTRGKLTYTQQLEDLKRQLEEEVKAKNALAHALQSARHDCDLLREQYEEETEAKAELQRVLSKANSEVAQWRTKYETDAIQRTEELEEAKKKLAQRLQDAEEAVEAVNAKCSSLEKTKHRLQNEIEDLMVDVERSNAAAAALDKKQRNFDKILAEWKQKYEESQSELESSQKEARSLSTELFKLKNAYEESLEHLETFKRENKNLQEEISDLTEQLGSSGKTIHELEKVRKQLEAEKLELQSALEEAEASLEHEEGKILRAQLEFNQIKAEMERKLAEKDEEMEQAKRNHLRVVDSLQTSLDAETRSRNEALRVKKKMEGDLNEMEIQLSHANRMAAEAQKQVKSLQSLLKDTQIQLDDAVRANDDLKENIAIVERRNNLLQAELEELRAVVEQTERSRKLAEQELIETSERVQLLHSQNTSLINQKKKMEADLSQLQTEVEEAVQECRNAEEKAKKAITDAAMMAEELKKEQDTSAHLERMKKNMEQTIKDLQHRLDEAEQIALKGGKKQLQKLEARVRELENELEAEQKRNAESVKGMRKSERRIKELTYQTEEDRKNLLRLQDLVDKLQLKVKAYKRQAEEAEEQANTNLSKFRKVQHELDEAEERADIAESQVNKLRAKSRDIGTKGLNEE
Outline: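 Test compounds acted on myofibrils isolated from the left ventricle of Yucatan minipigs. ADP formation was coupled via pyruvate kinase/lactate dehydrogenase to NADH oxidation, monitored kinetically at 340 nm over 75 min. Rates relative to vehicle were fitted with a 4-parameter logistic model, reported as Y75 (25% inhibition) or Y125 (activation) concentrations.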

Structure (SMILES)	Skeletal EC25 [1] [µM]	Atrial EC25 [2] [µM]	Ventricular EC25 [3] [µM]
Cc1nccc2[nH]c(=O)c(CC(=O)N[C@@H](CO)c3ncc(F)cc3F)c(C)c12 (single isomer, unassigned) [compound 308]	1.82	1.07	12.24
COc1cccc([C@@H](C)NC(=O)Cc2c(C)c3c(C)nccc3[nH]c2=O)n1 (single isomer, unassigned) [compound 309]	100.00	100.00	100.00
COc1cccc([C@H](C)NC(=O)Cc2c(C)c3c(C)nccc3[nH]c2=O)n1 (single isomer, unassigned) [compound 310]	100.00	100.00	100.00
Cc1nccc2[nH]c(=O)c(CC(=O)N[C@H](CO)c3cccnc3)c(C)c12 (single isomer, unassigned) [compound 311]	100.00	100.00	100.00
Cc1nccc2[nH]c(=O)c(CC(=O)N[C@@H](CO)c3cccnc3)c(C)c12 (single isomer, unassigned) [compound 312]	100.00	100.00	100.00
Cc1cccc([C@H](CO)NC(=O)Cc2c(C)c3c(C)nccc3[nH]c2=O)c1 (single isomer, unassigned) [compound 313]	100.00	100.00	100.00
COc1cccc([C@@H](C)NC(=O)Cc2c(C)c3c(C)nccc3[nH]c2=O)c1 (single isomer, unassigned) [compound 314]	100.00	100.00	100.00
COc1cccc([C@H](C)NC(=O)Cc2c(C)c3c(C)nccc3[nH]c2=O)c1 (single isomer, unassigned) [compound 315]	100.00	100.00	100.00
Cc1nccc2[nH]c(=O)c(CC(=O)N[C@H](CO)c3ccccn3)c(C)c12 (single isomer, unassigned) [compound 316]	100.00	100.00	100.00
Cc1nccc2[nH]c(=O)c(CC(=O)N[C@@H](CO)c3ccccn3)c(C)c12 (single isomer, unassigned) [compound 317]	100.00	100.00	100.00
Cc1nccc2[nH]c(=O)c(CC(=O)N[C@H](C)c3cccnc3)c(C)c12 (single isomer, unassigned) [compound 322]	100.00	100.00	100.00
Cc1nccc2[nH]c(=O)c(CC(=O)N[C@@H](C)c3cccnc3)c(C)c12 (single isomer, unassigned) [compound 323]	100.00	100.00	100.00
Cc1nccc2[nH]c(=O)c(CC(=O)N[C@H](C)c3ccccn3)c(C)c12 (single isomer, unassigned) [compound 324]	100.00	100.00	100.00
Cc1nccc2[nH]c(=O)c(CC(=O)N[C@@H](C)c3ccccn3)c(C)c12 (single isomer, unassigned) [compound 325]	1.57	100.00	100.00
Cc1nccc2[nH]c(=O)c(CC(=O)N[C@H](C)c3ccncc3)c(C)c12 (single isomer, unassigned) [compound 333]	100.00	100.00	100.00
Cc1nccc2[nH]c(=O)c(CC(=O)N[C@@H](C)c3ccncc3)c(C)c12 (single isomer, unassigned) [compound 334]	100.00	100.00	100.00
Cc1ccc([C@@H](CO)NC(=O)Cc2c(C)c3c(C)nccc3[nH]c2=O)cc1 (single isomer, unassigned) [compound 335]	26.39	100.00	100.00
Cc1ccc([C@H](CO)NC(=O)Cc2c(C)c3c(C)nccc3[nH]c2=O)cc1 (single isomer, unassigned) [compound 336]	100.00	69.32	100.00

More lines, now with the values ahead:

Skeletal EC25 [1] [µM]	Atrial EC25 [2] [µM]	Ventricular EC25 [3] [µM]	Structure (SMILES)
27.68	100.00	100.00	COc1ccccc1[C@@H](C)NC(=O)Cc1c(C)c2c(C)nccc2[nH]c1=O (single isomer, unassigned) [compound 318]
100.00	100.00	100.00	COc1ccccc1[C@H](C)NC(=O)Cc1c(C)c2c(C)nccc2[nH]c1=O (single isomer, unassigned) [compound 319]
34.09	100.00	100.00	Cc1nccc2[nH]c(=O)c(CC(=O)N[C@H](C)c3ccccc3O)c(C)c12 (single isomer, unassigned) [compound 320]
100.00	100.00	100.00	Cc1nccc2[nH]c(=O)c(CC(=O)N[C@@H](C)c3ccccc3O)c(C)c12 (single isomer, unassigned) [compound 321]
100.00	100.00	100.00	Cc1ccccc1[C@@H](C)NC(=O)Cc1c(C)c2c(C)nccc2[nH]c1=O (single isomer, unassigned) [compound 326]
0.67	3.29	9.24	Cc1ccccc1[C@H](C)NC(=O)Cc1c(C)c2c(C)nccc2[nH]c1=O (single isomer, unassigned) [compound 327]
100.00	100.00	100.00	Cc1nccc2[nH]c(=O)c(CC(=O)N[C@H](C)c3ccc(O)cc3)c(C)c12 (single isomer, unassigned) [compound 328]
100.00	100.00	100.00	Cc1nccc2[nH]c(=O)c(CC(=O)N[C@@H](C)c3ccc(O)cc3)c(C)c12 (single isomer, unassigned) [compound 329]
100.00	100.00	100.00	Cc1nccc2[nH]c(=O)c(CC(=O)N[C@H](C)c3cccc(O)c3)c(C)c12 (single isomer, unassigned) [compound 330]
100.00	100.00	100.00	Cc1nccc2[nH]c(=O)c(CC(=O)N[C@@H](C)c3cccc(O)c3)c(C)c12 (single isomer, unassigned) [compound 331]
100.00	100.00	100.00	Cc1ccccc1[C@@H](CO)NC(=O)Cc1c(C)c2c(C)nccc2[nH]c1=O (single isomer, unassigned) [compound 337]
